Source: article PMC6409085, “Three odorant-binding proteins are involved in the behavioral response of Sogatella furcifera to rice plant volatiles” (PeerJ, 2019)
Where “and” joins values, the source holds several entries; their conditions need not be identical. Identical values can stand only once.

Assays:
S. furcifera adults = experiment: Y-tube olfactometer behavioral trials; type: in vivo, Sogatella furcifera; conditions: odorant 50 µL/L vs hexane
In short: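 Single S. furcifera adults (2 days post-emergence, starved 0.5 h) chose between odorant (100 µL of 50 µL/L on filter paper) and hexane control in a glass Y-tube, charcoal-filtered humidified air 300 mL/min per arm, 25 ± 1 °C, 50% RH. Choice scored if insect passed half an arm and stayed >1 min within 10 min; 45 insects per compound, chi-squared test.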

SfurOBP3 = SfurOBP3 (Sogatella furcifera, UniProt V5T818); experiment: biochemical; type: binding; conditions: for Fluorescence competitive binding assay, fluorescence intensity: OBP3, three replicate columns
In short: (§1)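 In 50 mM Tris-HCl pH 7.4, odorants displace 1-NPN (2.0 µM) from 2.0 µM protein. Emission at 390–490 nm under 337 nm excitation is measured 2 min after competitor addition, in triplicate. Ki is obtained from IC50 and the 1-NPN dissociation constant.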

SfurOBP2 = SfurOBP2 (Sogatella furcifera, UniProt V5T759); experiment: biochemical; type: binding
In short: as §1

SfurOBP1 = SfurOBP1 (Sogatella furcifera, UniProt V5T8N5); experiment: biochemical; type: binding; conditions: for Fluorescence competitive binding assay, fluorescence intensity: OBP1, three replicate columns
In short: as §1

SfurOBP11 = SfurOBP11 (Sogatella furcifera, UniProt V5T6E3); experiment: biochemical; type: binding
In short: as §1

Sequence of SfurOBP1 (V5T8N5 entry or part of it): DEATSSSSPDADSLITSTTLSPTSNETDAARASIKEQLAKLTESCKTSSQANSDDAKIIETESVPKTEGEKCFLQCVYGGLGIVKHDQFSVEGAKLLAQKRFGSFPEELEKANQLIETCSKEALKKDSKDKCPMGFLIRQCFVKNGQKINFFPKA
Sequence of SfurOBP2 (V5T759 entry or part of it): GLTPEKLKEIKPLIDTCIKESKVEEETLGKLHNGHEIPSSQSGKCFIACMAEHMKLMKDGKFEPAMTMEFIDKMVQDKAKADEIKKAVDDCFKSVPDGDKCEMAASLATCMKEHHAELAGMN
Sequence of SfurOBP3 (V5T818 entry or part of it): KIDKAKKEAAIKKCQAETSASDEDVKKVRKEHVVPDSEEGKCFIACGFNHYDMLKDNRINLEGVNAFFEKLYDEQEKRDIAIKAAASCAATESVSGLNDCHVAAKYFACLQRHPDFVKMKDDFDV
Sequence of SfurOBP11 (V5T6E3 entry or part of it): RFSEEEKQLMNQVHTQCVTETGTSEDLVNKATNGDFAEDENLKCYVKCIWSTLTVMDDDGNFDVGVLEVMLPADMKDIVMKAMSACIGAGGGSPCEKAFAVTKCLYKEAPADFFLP

`CCCCCCCC` [n-octane] was tested, and the “behavioral response of S. furcifera (in words)” value (S. furcifera adults) was “significantly repelled”, the “number of insects choosing hexane arm” value (S. furcifera adults; adults) was 19 and the “number of insects choosing volatilies arm” value (S. furcifera adults; adults) was 10. The “number of insects failed (no choice)” value (S. furcifera adults; adults) was 11, the “Fluorescence competitive binding assay, fluorescence intensity” value (SfurOBP3; ligand concentration 2) was 68170 and 67677 and 64610 and the “Fluorescence competitive binding assay, fluorescence intensity” value (SfurOBP3; ligand concentration 4) was 67293 and 62720 and 65655. The “Fluorescence competitive binding assay, fluorescence intensity” value (SfurOBP3; ligand concentration 6) was 76553 and 64631 and 57162, the “Fluorescence competitive binding assay, fluorescence intensity” value (SfurOBP3; ligand concentration 8) was 71829 and 61798 and 56284 and the “Fluorescence competitive binding assay, fluorescence intensity” value (SfurOBP3; ligand concentration 10) was 59554 and 55292 and 53530. The “Fluorescence competitive binding assay, fluorescence intensity” value (SfurOBP3; ligand concentration 12) was 55099 and 48687 and 52349, the “Fluorescence competitive binding assay, fluorescence intensity” value (SfurOBP3; ligand concentration 14) was 54529 and 46904 and 51749 and the “Fluorescence competitive binding assay, fluorescence intensity” value (SfurOBP3; ligand concentration 16) was 48833 and 47113 and 45049. The “Fluorescence competitive binding assay, fluorescence intensity” value (SfurOBP3; ligand concentration 18) was 45841 and 47813 and 46502, the “Fluorescence competitive binding assay, fluorescence intensity” value (SfurOBP3; ligand concentration 20) was 46899 and 47179 and 42858 and the IC50 (SfurOBP3; SfurOBP3, protein and 1-NPN both 2.0 µM, competitor 2-20 µM, read-out: IC50) was > 20 µM. The IC50 (SfurOBP2; SfurOBP2, protein and 1-NPN both 2.0 µM, competitor 2-20 µM, read-out: IC50) was 19.9 µM, the “Fluorescence competitive binding assay, OBP2 (raw fluorescence reading)” value (SfurOBP2; ligand concentration 2 (unit not given), replicate column 1 of 3) was 18817 and the “Fluorescence competitive binding assay, OBP2 (raw fluorescence reading)” value (SfurOBP2; ligand concentration 2 (unit not given), replicate column 2 of 3) was 16925. The “Fluorescence competitive binding assay, OBP2 (raw fluorescence reading)” value (SfurOBP2; ligand concentration 2 (unit not given), replicate column 3 of 3) was 16813, the “Fluorescence competitive binding assay, OBP2 (raw fluorescence reading)” value (SfurOBP2; ligand concentration 4 (unit not given), replicate column 1 of 3) was 17604 and the “Fluorescence competitive binding assay, OBP2 (raw fluorescence reading)” value (SfurOBP2; ligand concentration 4 (unit not given), replicate column 2 of 3) was 17269. For the same molecule, the “Fluorescence competitive binding assay, OBP2 (raw fluorescence reading)” value (SfurOBP2; ligand concentration 4 (unit not given), replicate column 3 of 3) was 15635, the “Fluorescence competitive binding assay, OBP2 (raw fluorescence reading)” value (SfurOBP2; ligand concentration 6 (unit not given), replicate column 1 of 3) was 16307 and the “Fluorescence competitive binding assay, OBP2 (raw fluorescence reading)” value (SfurOBP2; ligand concentration 6 (unit not given), replicate column 2 of 3) was 16391. For the same molecule, the “Fluorescence competitive binding assay, OBP2 (raw fluorescence reading)” value (SfurOBP2; ligand concentration 6 (unit not given), replicate column 3 of 3) was 15566, the “Fluorescence competitive binding assay, OBP2 (raw fluorescence reading)” value (SfurOBP2; ligand concentration 8 (unit not given), replicate column 1 of 3) was 15494 and the “Fluorescence competitive binding assay, OBP2 (raw fluorescence reading)” value (SfurOBP2; ligand concentration 8 (unit not given), replicate column 2 of 3) was 15122. For the same molecule, the “Fluorescence competitive binding assay, OBP2 (raw fluorescence reading)” value (SfurOBP2; ligand concentration 8 (unit not given), replicate column 3 of 3) was 16014, the “Fluorescence competitive binding assay, OBP2 (raw fluorescence reading)” value (SfurOBP2; ligand concentration 10 (unit not given), replicate column 1 of 3) was 15063 and the “Fluorescence competitive binding assay, OBP2 (raw fluorescence reading)” value (SfurOBP2; ligand concentration 10 (unit not given), replicate column 2 of 3) was 14978. For the same molecule, the “Fluorescence competitive binding assay, OBP2 (raw fluorescence reading)” value (SfurOBP2; ligand concentration 10 (unit not given), replicate column 3 of 3) was 15010, the “Fluorescence competitive binding assay, OBP2 (raw fluorescence reading)” value (SfurOBP2; ligand concentration 12 (unit not given), replicate column 1 of 3) was 12606 and the “Fluorescence competitive binding assay, OBP2 (raw fluorescence reading)” value (SfurOBP2; ligand concentration 12 (unit not given), replicate column 2 of 3) was 12327. For the same molecule, the “Fluorescence competitive binding assay, OBP2 (raw fluorescence reading)” value (SfurOBP2; ligand concentration 12 (unit not given), replicate column 3 of 3) was 12885, the “Fluorescence competitive binding assay, OBP2 (raw fluorescence reading)” value (SfurOBP2; ligand concentration 14 (unit not given), replicate column 1 of 3) was 12907 and the “Fluorescence competitive binding assay, OBP2 (raw fluorescence reading)” value (SfurOBP2; ligand concentration 14 (unit not given), replicate column 2 of 3) was 11889. For the same molecule, the “Fluorescence competitive binding assay, OBP2 (raw fluorescence reading)” value (SfurOBP2; ligand concentration 14 (unit not given), replicate column 3 of 3) was 12746, the “Fluorescence competitive binding assay, OBP2 (raw fluorescence reading)” value (SfurOBP2; ligand concentration 16 (unit not given), replicate column 1 of 3) was 11757 and the “Fluorescence competitive binding assay, OBP2 (raw fluorescence reading)” value (SfurOBP2; ligand concentration 16 (unit not given), replicate column 2 of 3) was 11955. For the same molecule, the “Fluorescence competitive binding assay, OBP2 (raw fluorescence reading)” value (SfurOBP2; ligand concentration 16 (unit not given), replicate column 3 of 3) was 11106, the “Fluorescence competitive binding assay, OBP2 (raw fluorescence reading)” value (SfurOBP2; ligand concentration 18 (unit not given), replicate column 1 of 3) was 11096 and the “Fluorescence competitive binding assay, OBP2 (raw fluorescence reading)” value (SfurOBP2; ligand concentration 18 (unit not given), replicate column 2 of 3) was 11451. For the same molecule, the “Fluorescence competitive binding assay, OBP2 (raw fluorescence reading)” value (SfurOBP2; ligand concentration 18 (unit not given), replicate column 3 of 3) was 11415, the “Fluorescence competitive binding assay, OBP2 (raw fluorescence reading)” value (SfurOBP2; ligand concentration 20 (unit not given), replicate column 1 of 3) was 12132 and the “Fluorescence competitive binding assay, OBP2 (raw fluorescence reading)” value (SfurOBP2; ligand concentration 20 (unit not given), replicate column 2 of 3) was 10679. For the same molecule, the “Fluorescence competitive binding assay, OBP2 (raw fluorescence reading)” value (SfurOBP2; ligand concentration 20 (unit not given), replicate column 3 of 3) was 10932, the “Fluorescence competitive binding assay, fluorescence intensity” value (SfurOBP1; ligand concentration 2 (μM)) was 5925 and 7991 and 7456 and the “Fluorescence competitive binding assay, fluorescence intensity” value (SfurOBP1; ligand concentration 4 (μM)) was 8340 and 7163 and 7902. For the same molecule, the “Fluorescence competitive binding assay, fluorescence intensity” value (SfurOBP1; ligand concentration 6 (μM)) was 8616 and 7456 and 8995, the “Fluorescence competitive binding assay, fluorescence intensity” value (SfurOBP1; ligand concentration 8 (μM)) was 8020 and 7176 and 8029 and the “Fluorescence competitive binding assay, fluorescence intensity” value (SfurOBP1; ligand concentration 10 (μM)) was 7070 and 8613 and 8224. For the same molecule, the “Fluorescence competitive binding assay, fluorescence intensity” value (SfurOBP1; ligand concentration 12 (μM)) was 6680 and 8217 and 6786, the “Fluorescence competitive binding assay, fluorescence intensity” value (SfurOBP1; ligand concentration 14 (μM)) was 7048 and 6801 and 7552 and the “Fluorescence competitive binding assay, fluorescence intensity” value (SfurOBP1; ligand concentration 16 (μM)) was 6817 and 7163 and 7002. For the same molecule, the “Fluorescence competitive binding assay, fluorescence intensity” value (SfurOBP1; ligand concentration 18 (μM)) was 8094 and 8514 and 8878, the “Fluorescence competitive binding assay, fluorescence intensity” value (SfurOBP1; ligand concentration 20 (μM)) was 7869 and 7702 and 8440 and the IC50 (SfurOBP1; SfurOBP1, protein and 1-NPN both 2.0 µM, competitor 2-20 µM, read-out: IC50) was > 20 µM. For the same molecule, the IC50 (SfurOBP11; SfurOBP11, protein and 1-NPN both 2.0 µM, competitor 2-20 µM, read-out: IC50) was > 20 µM, the “Fluorescence intensity, fluorescence competitive binding assay, OBP11” value (“Fluorescence intensity … OBP11” for short) (SfurOBP11; ligand concentration 2, replicate 1) was 29315 and the “Fluorescence intensity … OBP11” value (SfurOBP11; ligand concentration 2, replicate 2) was 29331. The “Fluorescence intensity … OBP11” value (SfurOBP11; ligand concentration 2, replicate 3) was 31569, the “Fluorescence intensity … OBP11” value (SfurOBP11; ligand concentration 4, replicate 1) was 28278 and the “Fluorescence intensity … OBP11” value (SfurOBP11; ligand concentration 4, replicate 2) was 30015. The “Fluorescence intensity … OBP11” value (SfurOBP11; ligand concentration 4, replicate 3) was 31065, the “Fluorescence intensity … OBP11” value (SfurOBP11; ligand concentration 6, replicate 1) was 29774 and the “Fluorescence intensity … OBP11” value (SfurOBP11; ligand concentration 6, replicate 2) was 29054. For the same molecule, the “Fluorescence intensity … OBP11” value (SfurOBP11; ligand concentration 6, replicate 3) was 29894, the “Fluorescence intensity … OBP11” value (SfurOBP11; ligand concentration 8, replicate 1) was 27943 and the “Fluorescence intensity … OBP11” value (SfurOBP11; ligand concentration 8, replicate 2) was 28064. The “Fluorescence intensity … OBP11” value (SfurOBP11; ligand concentration 8, replicate 3) was 27821, the “Fluorescence intensity … OBP11” value (SfurOBP11; ligand concentration 10, replicate 1) was 27525 and the “Fluorescence intensity … OBP11” value (SfurOBP11; ligand concentration 10, replicate 2) was 26078. The “Fluorescence intensity … OBP11” value (SfurOBP11; ligand concentration 10, replicate 3) was 27163, the “Fluorescence intensity … OBP11” value (SfurOBP11; ligand concentration 12, replicate 1) was 24273 and the “Fluorescence intensity … OBP11” value (SfurOBP11; ligand concentration 12, replicate 2) was 26556. For the same molecule, the “Fluorescence intensity … OBP11” value (SfurOBP11; ligand concentration 12, replicate 3) was 26721, the “Fluorescence intensity … OBP11” value (SfurOBP11; ligand concentration 14, replicate 1) was 22920 and the “Fluorescence intensity … OBP11” value (SfurOBP11; ligand concentration 14, replicate 2) was 23793. For the same molecule, the “Fluorescence intensity … OBP11” value (SfurOBP11; ligand concentration 14, replicate 3) was 23357, the “Fluorescence intensity … OBP11” value (SfurOBP11; ligand concentration 16, replicate 1) was 19613 and the “Fluorescence intensity … OBP11” value (SfurOBP11; ligand concentration 16, replicate 2) was 20535. The “Fluorescence intensity … OBP11” value (SfurOBP11; ligand concentration 16, replicate 3) was 20285, the “Fluorescence intensity … OBP11” value (SfurOBP11; ligand concentration 18, replicate 1) was 26966 and the “Fluorescence intensity … OBP11” value (SfurOBP11; ligand concentration 18, replicate 2) was 26281. For the same molecule, the “Fluorescence intensity … OBP11” value (SfurOBP11; ligand concentration 18, replicate 3) was 26291, the “Fluorescence intensity … OBP11” value (SfurOBP11; ligand concentration 20, replicate 1) was 26611 and the “Fluorescence intensity … OBP11” value (SfurOBP11; ligand concentration 20, replicate 2) was 26798. For the same molecule, the “Fluorescence intensity … OBP11” value (SfurOBP11; ligand concentration 20, replicate 3) was 25454.
